Several values for one entry are separate records, joined by “and”; a condition that tells them apart may be missing. Equal entries are not always repeated. Inconclusive results and toxic doses are left out. Rule for the calls: active = survival T/C of 150% or more; inactive = T/C below 125% in these data.
Test system: BDF1 mice, Lewis lung carcinoma iv, survival T/C
Test: NCI In Vivo Anticancer Drug Screen. Data for tumor model Lewis Lung Carcinoma (intravenous) in B6D2F1 (BDF1) mice
Settings: schedule: Q01DX009 (ip), higher = longer survival
Description: The antitumor activity of compounds was measured in mice bearing transplantable tumors. Survival or tumor size were measured and the results are expressed as the measurement made in the treated group (T) divided by the measurement made in the vehicle treated control group (C). The tumor model used in this assay is Lewis Lung Carcinoma (intravenous) in B6D2F1 (BDF1) mice

[1] = endpoint: median survival time, dose: 50.0 mg/kg/injection, vehicle: saline
[2] = endpoint: median survival time, dose: 100.0 mg/kg/injection, vehicle: saline
[3] = endpoint: median survival time, dose: 200.0 mg/kg/injection, vehicle: saline
[4] = endpoint: median survival time, dose: 3.12 mg/kg/injection, vehicle: saline with Tween-80
[5] = endpoint: median survival time, dose: 6.25 mg/kg/injection, vehicle: saline with Tween-80
[6] = endpoint: median survival time, dose: 12.5 mg/kg/injection, vehicle: saline with Tween-80
[7] = endpoint: median survival time, dose: 25.0 mg/kg/injection, vehicle: saline with Tween-80
[8] = endpoint: median survival time, dose: 50.0 mg/kg/injection, vehicle: saline with Tween-80
[9] = endpoint: median survival time, dose: 100.0 mg/kg/injection, vehicle: saline with Tween-80
[10] = endpoint: median survival time, dose: 12.5 mg/kg/injection, vehicle: saline
[11] = endpoint: median survival time, dose: 25.0 mg/kg/injection, vehicle: saline
[12] = endpoint: median survival time, dose: 50.0 mg/kg/injection, vehicle: suspension in saline
[13] = endpoint: median survival time, dose: 25.0 mg/kg/injection, vehicle: Klucel (hydroxypropylcellulose) (HPC)
[14] = endpoint: median survival time, dose: 50.0 mg/kg/injection, vehicle: Klucel (hydroxypropylcellulose) (HPC)
[15] = endpoint: median survival time, dose: 3.13 mg/kg/injection, vehicle: saline with Tween-80

Measured: T/C

Nc1ncnc2c1ncn2C1C=C(CO)C(O)C1O (stereo not drawn)
inactive: endpoint: median survival time, dose: 0.5 mg/kg/injection, vehicle: saline 102 % of control | endpoint: median survival time, dose: 1.0 mg/kg/injection, vehicle: saline 98 % of control | endpoint: median survival time, dose: 2.0 mg/kg/injection, vehicle: saline 88 % of control | endpoint: median survival time, dose: 4.0 mg/kg/injection, vehicle: saline 95 % of control

O=C(O)CP(=O)(O)O
active: [3] 152 % of control
inactive: [1] 96 % of control | [2] 96 % of control

N#Cc1nc(C#N)c(Sc2ccccc2)c(Sc2ccccc2)c1Sc1ccccc1
inactive: [4] 95 % of control | [5] 94 % of control | [6] 97 % of control | [7] 95 % of control | [8] 98 % of control | [9] 98 % of control

CCOC(=O)C1=C(C#N)C2(CCC(OCc3ccccc3)CC2)C(=O)O1 (stereo not drawn)
inactive: [10] 94 % of control | [11] 95 % of control | [1] 98 % of control | [2] 106 % of control | [3] 114 % of control | endpoint: median survival time, dose: 400.0 mg/kg/injection, vehicle: saline 89 % of control

CC(=O)OCC1OC(n2cnc3c(=S)nc[nH]c32)C(OC(C)=O)C1OC(C)=O (stereo not drawn)
inactive: [12] 100 % of control

NC1=NC(=O)N2CC12 (stereo not drawn)
inactive: [10] 107 % of control | [11] 110 % of control | [1] 105 % of control | [2] 105 % of control | [3] 109 % of control

C=C(C)[C@@H]1CCc2c(O)c(O)c(=O)cc(C)c2C1
inactive: endpoint: median survival time, dose: 3.12 mg/kg/injection, vehicle: saline 111 % of control | endpoint: median survival time, dose: 6.25 mg/kg/injection, vehicle: saline 106 % of control | [10] 96 % of control | [11] 101 % of control | [1] 102 % of control | [2] 101 % of control

CN(C)CCN1C(=O)c2cccc3cc(N)cc(c23)C1=O
inactive: endpoint: median survival time, dose: 1.0 mg/kg/injection, vehicle: saline with Tween-80 100 % of control | endpoint: median survival time, dose: 2.0 mg/kg/injection, vehicle: saline with Tween-80 100 % of control | endpoint: median survival time, dose: 4.0 mg/kg/injection, vehicle: saline with Tween-80 97 % of control | endpoint: median survival time, dose: 8.0 mg/kg/injection, vehicle: saline with Tween-80 98 % of control | endpoint: median survival time, dose: 16.0 mg/kg/injection, vehicle: saline with Tween-80 116 % of control

COC1/C=C\C=C(/C)C(=O)NC2=CC(=O)C=C(C2=O)C(OC)C(C)CC(OC)C(OC)C(C)/C=C(/C)C1OC(N)=O (stereo not drawn)
inactive: endpoint: median survival time, dose: 0.18 mg/kg/injection, vehicle: Klucel (hydroxypropylcellulose) (HPC) 112 % of control | endpoint: median survival time, dose: 0.37 mg/kg/injection, vehicle: Klucel (hydroxypropylcellulose) (HPC) 115 % of control | endpoint: median survival time, dose: 0.75 mg/kg/injection, vehicle: Klucel (hydroxypropylcellulose) (HPC) 112 % of control | endpoint: median survival time, dose: 1.5 mg/kg/injection, vehicle: Klucel (hydroxypropylcellulose) (HPC) 105 % of control

Cc1cc(/C=C/c2cc[n+](C)c3ccccc23)c(O)c2ncccc12
inactive: [5] 95 % of control | [6] 109 % of control

CC(=O)Nc1ccc(Nc2ccc(C(=C3C=CC(=[N+](C)CCC#N)C=C3)c3ccc(N(C)CCC#N)cc3)cc2)cc1
inactive: [6] 101 % of control | [7] 110 % of control

CC[As](=O)(O)CC
inactive: [11] 105 % of control | [2] 101 % of control | [3] 86 % of control

CCN(C)N=Nc1ccc(C(N)=O)cc1
inactive: endpoint: median survival time, dose: 6.25 mg/kg/injection, vehicle: Klucel (hydroxypropylcellulose) (HPC) 104 % of control | endpoint: median survival time, dose: 12.5 mg/kg/injection, vehicle: Klucel (hydroxypropylcellulose) (HPC) 102 % of control | [13] 109 % of control | [14] 122 % of control | endpoint: median survival time, dose: 100.0 mg/kg/injection, vehicle: Klucel (hydroxypropylcellulose) (HPC) 87 % of control

Nc1cc2[nH]cnc2c(=O)[nH]1
inactive: endpoint: mean survival time, dose: 95.0 mg/kg/injection, vehicle: Klucel (hydroxypropylcellulose) (HPC) 118 % of control | endpoint: mean survival time, dose: 140.0 mg/kg/injection, vehicle: Klucel (hydroxypropylcellulose) (HPC) 90 % of control

Nc1cc2c3c(cccc3c1)C(=O)N(CCN1CCCC1)C2=O
inactive: [4] 99 % of control | [5] 103 % of control | [6] 103 % of control | [7] 115 % of control | [8] 113 % of control | [9] 119 % of control

Nc1ccc2ccc(O)cc2c1
inactive: [7] 100 % of control | [8] 99 % of control | [9] 91 % of control

CN(C)/N=N/c1nc[nH]c1C(N)=O
active: [13] 150 % of control
inactive: endpoint: median survival time, dose: 16.0 mg/kg/injection, vehicle: Klucel (hydroxypropylcellulose) (HPC) 102 % of control | endpoint: median survival time, dose: 32.0 mg/kg/injection, vehicle: Klucel (hydroxypropylcellulose) (HPC) 109 % of control | [14] 118 % of control | endpoint: median survival time, dose: 128.0 mg/kg/injection, vehicle: Klucel (hydroxypropylcellulose) (HPC) 117 % of control | endpoint: median survival time, dose: 256.0 mg/kg/injection, vehicle: Klucel (hydroxypropylcellulose) (HPC) 123 % of control

c1ccc(CCN2CCC(CCc3c[nH]c4ccccc34)CC2)cc1
inactive: [10] 100 % of control | [11] 104 % of control | [1] 116 % of control

COc1cc(O)c2c(O)c3c(c4c2c1[C@]1(C4)C(C)=CCCC1(C)C)[C@H](O)[C@@]1(O)CC(=O)C(C(N)=O)=C(O)[C@@]1(O)C3=O
inactive: endpoint: median survival time, dose: 1.56 mg/kg/injection, vehicle: saline with Tween-80 112 % of control | [15] 100 % of control | [5] 103 % of control | [6] 102 % of control

CN=C(N)N/N=C(\C)c1ccc2oc3ccc(/C(C)=N/NC(N)=NC)cc3c2c1
inactive: [6] 98 % of control | [7] 118 % of control

CC1(c2ccc(Cl)cc2)OC(=O)C(=Cc2ccc([N+](=O)[O-])s2)C(=O)O1 (stereo not drawn)
inactive: [6] 100 % of control | [7] 100 % of control | [8] 99 % of control | [9] 98 % of control

Nc1nc(N)c2c(Cl)c(CNc3ccc(Cl)c(Cl)c3)ccc2n1
inactive: [15] 102 % of control | [5] 99 % of control | [6] 108 % of control | [7] 111 % of control | [8] 98 % of control

CCOC(=O)c1c[nH]c2oc(/C=N/N3CC(CN4CCOCC4)OC3=O)cc2c1=O (stereo not drawn)
inactive: endpoint: median survival time, dose: 6.25 mg/kg/injection, vehicle: suspension in saline 108 % of control | endpoint: median survival time, dose: 12.5 mg/kg/injection, vehicle: suspension in saline 105 % of control | endpoint: median survival time, dose: 25.0 mg/kg/injection, vehicle: suspension in saline 104 % of control | [12] 114 % of control | endpoint: median survival time, dose: 100.0 mg/kg/injection, vehicle: suspension in saline 106 % of control

c1ccc(CN2CCOC2)cc1
inactive: [10] 96 % of control | [11] 107 % of control | [1] 116 % of control | [2] 99 % of control

CC(C)C(N)C(=O)Nc1nncs1 (stereo not drawn)
inactive: [10] 104 % of control | [11] 106 % of control | [1] 106 % of control | [2] 115 % of control | [3] 95 % of control

CCCC(=O)Oc1ccc(/C=N/NC(N)=S)nc1
inactive: [6] 104 % of control and 109 % of control | [7] 109 % of control | [8] 96 % of control and 109 % of control | [9] 97 % of control and 104 % of control | endpoint: median survival time, dose: 200.0 mg/kg/injection, vehicle: saline with Tween-80 120 % of control

CCCCCCCCCCCCCCCCS(=O)CC(O)COC(=O)c1ccc(C(=O)OCC(O)CS(=O)CCCCCCCCCCCCCCCC)cc1 (stereo not drawn)
inactive: endpoint: median survival time, dose: 12.5 mg/kg/injection, vehicle: saline + Tween-80 + alcohol 88 % of control | endpoint: median survival time, dose: 25.0 mg/kg/injection, vehicle: saline + alcohol 95 % of control | endpoint: median survival time, dose: 50.0 mg/kg/injection, vehicle: saline + Tween-80 + alcohol 95 % of control | endpoint: median survival time, dose: 100.0 mg/kg/injection, vehicle: saline + Tween-80 + alcohol 92 % of control | endpoint: median survival time, dose: 100.0 mg/kg/injection, vehicle: saline + alcohol 101 % of control | endpoint: median survival time, dose: 200.0 mg/kg/injection, vehicle: saline + Tween-80 + alcohol 99 % of control
active: endpoint: median survival time, dose: 200.0 mg/kg/injection, vehicle: saline + alcohol 218 % of control

Source: PubChem BioAssay AID274 (DTP/NCI, 2004)
